Data: the NIST ThermoML archive (doi:10.1016/j.fluid.2009.12.002)
± gives the expanded uncertainty stated by the source.

How the values were obtained:
[1] = for mass density: Vibrating tube method; for vapor or sublimation pressure: isothermal bubble-point pressure
[2] = xn = mol fraction of the nth substance listed; settings: Liquid, Vibrating tube method

| Compound | mass density ([1]; 333.15 K, Gas) [kg/m3] | mass density ([1]; 333.15 K, Liquid) [kg/m3] | vapor or sublimation pressure ([1]; 333.15 K, Liquid) [kPa] | mass density ([1]; 343.15 K, Gas) [kg/m3] | mass density ([1]; 343.15 K, Liquid) [kg/m3] | vapor or sublimation pressure ([1]; 343.15 K, Liquid) [kPa] | mass density ([1]; 353.15 K, Gas) [kg/m3] | mass density ([1]; 353.15 K, Liquid) [kg/m3] | vapor or sublimation pressure ([1]; 353.15 K, Liquid) [kPa] | mass density ([2]; 333.15 K, x1 = 1) [kg/m3] | mass density ([2]; 343.15 K, x1 = 1) [kg/m3] | mass density ([2]; 353.15 K, x1 = 1) [kg/m3] | mass density ([2]; 333.15 K, x2 = 0) [kg/m3] | mass density ([2]; 343.15 K, x2 = 0) [kg/m3] | mass density ([2]; 353.15 K, x2 = 0) [kg/m3] |
| --- | --- | --- | --- | --- | --- | --- | --- | --- | --- | --- | --- | --- | --- | --- | --- |
| Cc1ccccc1C [1,2-dimethylbenzene] | 0.2087 ± 0.1 | 845.839 ± 0.23 | 5.45 ± 0.02 | 0.3149 ± 0.1 | 837.399 ± 0.23 | 8.47 ± 0.03 | 0.4587 ± 0.1 | 828.528 ± 0.24 | 12.71 ± 0.03 |  |  |  |  |  |  |
| Cc1ccccc1C [1,2-dimethylbenzene] + CNC=O |  |  |  |  |  |  |  |  |  | 845.839 ± 0.23 | 837.399 ± 0.23 | 828.528 ± 0.24 |  |  |  |
| Cc1cccc(C)c1 [1,3-dimethylbenzene] | 0.2519 ± 0.1 | 829.305 ± 0.24 | 6.58 ± 0.03 | 0.3779 ± 0.1 | 820.443 ± 0.24 | 10.17 ± 0.03 | 0.5457 ± 0.1 | 811.602 ± 0.24 | 15.12 ± 0.04 |  |  |  |  |  |  |
| Cc1cccc(C)c1 [1,3-dimethylbenzene] + CNC=O |  |  |  |  |  |  |  |  |  | 829.305 ± 0.24 | 820.443 ± 0.24 | 811.602 ± 0.24 |  |  |  |
| Cc1ccc(C)cc1 [1,4-dimethylbenzene] | 0.262 ± 0.1 | 825.539 ± 0.24 | 6.85 ± 0.03 | 0.3903 ± 0.1 | 816.664 ± 0.24 | 10.5 ± 0.03 | 0.5636 ± 0.1 | 807.649 ± 0.24 | 15.61 ± 0.04 |  |  |  |  |  |  |
| Cc1ccc(C)cc1 [1,4-dimethylbenzene] + CNC=O |  |  |  |  |  |  |  |  |  | 825.539 ± 0.24 | 816.664 ± 0.24 | 807.649 ± 0.24 |  |  |  |
| CNC=O [N-methylformamide] |  | 967.461 ± 0.23 | 0.37 ± 0.02 |  | 958.765 ± 0.23 | 0.67 ± 0.02 |  | 949.98 ± 0.23 | 1.15 ± 0.02 |  |  |  |  |  |  |
| CNC=O [N-methylformamide] + Cc1ccc(C)cc1 |  |  |  |  |  |  |  |  |  |  |  |  | 967.461 ± 0.23 | 958.765 ± 0.23 | 949.98 ± 0.23 |
| CNC=O [N-methylformamide] + Cc1cccc(C)c1 |  |  |  |  |  |  |  |  |  |  |  |  | 967.461 ± 0.23 | 958.765 ± 0.23 | 949.98 ± 0.23 |
| CNC=O [N-methylformamide] + Cc1ccccc1C |  |  |  |  |  |  |  |  |  |  |  |  | 967.461 ± 0.23 | 958.765 ± 0.23 | 949.98 ± 0.23 |
